Results as given in patent publication US11053196B2, “Substituted indoline derivatives as dengue viral replication inhibitors” (JANSSEN PHARMACEUTICALS, INC., priority 2017, dated 2021).

How the values were obtained:
DENV-2 16681 strain = assay: DENV-2 antiviral assay (eGFP-labeled virus in Vero cells); assay type: cell-based, Dengue virus; details: DENV-2 16681 eGFP, MOI 0.5, 3 days
Method: The antiviral activity of all the compounds of the invention was tested against the DENV-2 16681 strain which was labeled with enhanced green fluorescent protein (eGPF). The culture medium consists of minimal essential medium supplemented with 2% of heat-inactivated fetal calf serum, 0.04% gentamycin (50 mg/mL) and 2 mM of L-glutamine. Vero cells, obtained from ECACC, were suspended in culture medium and 25 μL was added to 384-well plates (2500 cells/well), which already contain the antiviral compounds. Typically, these plates contain a 5-fold serial dilution of 9 dilution steps of the test compound at 200 times the final concentration in 100% DMSO (200 nL). […] Finally, each plate contains wells which are assigned as virus controls (containing cells and virus in the absence of compound), cell controls (containing cells in the absence of virus and compound) and medium controls (containing medium in the absence of cells, virus and compounds). To the wells assigned as medium control, 25 μL of culture medium was added instead of Vero cells. Once the cells are added to the plates, the plates were incubated for 30 minutes at room temperature to allow the cells to distribute evenly within the wells. Next, the plates were incubated in a fully humidified incubator (37° C., 5% CO2) until the next day. Then, DENV-2 strain 16681, labeled with eGFP, was added at a multiplicity of infection (MOI) of 0.5.
Therefore, 15 μL of virus suspension was added to all the wells containing test compound and to the wells assigned as virus control. In parallel, 15 μL of culture medium was added to the medium and cell controls. Next, the plates were incubated for 3 days in a fully humidified incubator (37° C., 5% CO2). At the day of the read out, the eGFP fluorescence was measured using an automated fluorescence microscope at 488 nm (blue laser). Using an in-house LIMS system, inhibition dose response curves for each compound were calculated and the half maximal effective concentration (EC50) was determined. Therefore, the percent inhibition (I) for every test concentration is calculated using the following formula: I=100*(ST−SCC)/(SVC−SCC); ST, SCC and SVC are the amount of eGFP signal in the test compound, cell control and virus control wells, respectively. The EC50 represents the concentration of a compound at which the virus replication is inhibited with 50%, as measured by a 50% reduction of the eGFP fluorescent intensity compared to the virus control. The EC50 is calculated using linear interpolation (Table 1).

in vitro = details: African green monkey
[1] = Dengue virus, DENV2, Vero, 72 h

| SMILES | EC50 (DENV-2 16681 strain; [1]) [µM] | CC50 (in vitro) [µM] | EC50 (DENV-2 16681 strain) [µM] |
| --- | --- | --- | --- |
| COc1cc(NC(C(=O)N2CCc3ccc(S(F)(F)(F)(F)F)cc32)c2ccc(Cl)cc2)cc(OCCCC(=O)O)c1 (racemic) [Compound 1, 4-(3-((1-(4-chlorophenyl)-2-oxo-2-(6-(pentafluoro-λ^6-sulfanyl)indolin-1-yl)ethyl)amino)-5-methoxyphenoxy)butanoic acid] | 0.00064 | 13 |  |
| COc1cc(NC(C(=O)N2CCc3c(C)cc(C(F)(F)F)cc32)c2ccc(Cl)cc2)cc(OCCCC(=O)O)c1 (racemic) [Compound 2, 4-(3-((1-(4-chlorophenyl)-2-(4-methyl-6-(trifluoromethyl)indolin-1-yl)-2-oxoethyl)amino)-5-methoxyphenoxy)butanoic acid] | 0.00038 | 12 |  |
| COc1cc(NC(C(=O)N2CCc3cc(F)c(C(F)(F)F)cc32)c2ccc(Cl)cc2)cc(OCCCC(=O)O)c1 (racemic) [Compound 3, 4-(3-((1-(4-chlorophenyl)-2-(5-fluoro-6-(trifluoromethyl)indolin-1-yl)-2-oxoethyl)amino)-5-methoxyphenoxy)butanoic acid] | 0.00056 | 13 |  |
| COc1cc(NC(C(=O)N2CCc3c(C)cc(OC(F)(F)F)cc32)c2ccc(Cl)cc2)cc(OCCCC(=O)O)c1 (racemic) [Compound 4, 4-(3-((1-(4-chlorophenyl)-2-(4-methyl-6-(trifluoromethoxy)indolin-1-yl)-2-oxoethyl)amino)-5-methoxyphenoxy)butanoic acid] | 0.00011 | 12 |  |
| COc1cc(NC(C(=O)N2CCc3cc(F)c(OC(F)(F)F)cc32)c2ccc(Cl)cc2)cc(OCCCC(=O)O)c1 (racemic) [Compound 5, 4-(3-((1-(4-chlorophenyl)-2-(5-fluoro-6-(trifluoromethoxy)indolin-1-yl)-2-oxoethyl)amino)-5-methoxyphenoxy)butanoic acid] | 0.00011 | 10 |  |
| COc1cc(NC(C(=O)N2CCc3ccc(OC(F)(F)F)cc32)c2ccc(F)cc2OC)cc(OCCCC(=O)O)c1 (racemic) [Compound 6, 4-(3-((1-(4-fluoro-2-methoxyphenyl)-2-oxo-2-(6-(trifluoromethoxy)indolin-1-yl)ethyl)amino)-5-methoxyphenoxy)butanoic acid] | 0.00063 | 12 |  |
| COc1cc(NC(C(=O)N2CCc3ccc(OC(F)(F)F)cc32)c2ccc(Cl)cc2OCCO)cc(OCCCC(=O)O)c1 (racemic) [Compound 8, 4-(3-((1-(4-chloro-2-(2-hydroxyethoxy)phenyl)-2-oxo-2-(6-(trifluoromethoxy)indolin-1-yl)ethyl)amino)-5-methoxyphenoxy)butanoic acid] | 0.00015 | 13 |  |
| COc1cc(NC(C(=O)N2CCc3nc(OC)c(C(F)(F)F)cc32)c2ccc(Cl)cc2)cc(OCCCC(=O)O)c1 (racemic) [Compound 9, 4-(3-((1-(4-chlorophenyl)-2-(5-methoxy-6-(trifluoromethyl)-2,3-dihydro-1H-pyrrolo[3,2-b]pyridin-1-yl)-2-oxoethyl)amino)-5-methoxyphenoxy)butanoic acid] | 0.00099 | 12 |  |
| COc1cc(NC(C(=O)N2CCc3sc(C(F)(F)F)cc32)c2ccc(Cl)cc2)cc(OCCCC(=O)O)c1 (racemic) [Compound 10, 4-(3-((1-(4-chlorophenyl)-2-oxo-2-(2-(trifluoromethyl)-5,6-dihydro-4H-thieno[3,2-b]pyrrol-4-yl)ethyl)amino)-5-methoxyphenoxy)butanoic acid] | 0.00052 | 19 |  |
| COc1cc(NC(C(=O)N2CCc3ccc(SC(F)(F)F)cc32)c2ccc(Cl)cc2)cc(OCCCC(=O)O)c1 (racemic) [Compound 11, 4-(3-((1-(4-chlorophenyl)-2-oxo-2-(6-((trifluoromethyl)thio)indolin-1-yl)ethyl)amino)-5-methoxyphenoxy)butanoic acid] | 0.00028 | 13 |  |
| COc1cc(NC(C(=O)N2CCc3ccc(S(F)(F)(F)(F)F)cc32)c2ccc(Cl)cc2)cc(OCCCC(=O)O)c1 (single isomer, unassigned) [Compound 1A, 4-(3-((1-(4-chlorophenyl)-2-oxo-2-(6-(pentafluoro-λ^6-sulfanyl)indolin-1-yl)ethyl)amino)-5-methoxyphenoxy)butanoic acid] |  | 12 | 0.0013 |
| COc1cc(NC(C(=O)N2CCc3c(C)cc(C(F)(F)F)cc32)c2ccc(Cl)cc2)cc(OCCCC(=O)O)c1 (single isomer, unassigned) [Compound 2A, 4-(3-((1-(4-chlorophenyl)-2-(4-methyl-6-(trifluoromethyl)indolin-1-yl)-2-oxoethyl)amino)-5-methoxyphenoxy)butanoic acid] |  | 12 | 0.015 |
| COc1cc(NC(C(=O)N2CCc3cc(F)c(OC(F)(F)F)cc32)c2ccc(Cl)cc2)cc(OCCCC(=O)O)c1 (single isomer, unassigned) [Compound 5A, 4-(3-((1-(4-chlorophenyl)-2-(5-fluoro-6-(trifluoromethoxy)indolin-1-yl)-2-oxoethyl)amino)-5-methoxyphenoxy)butanoic acid] |  | 10 | 0.0023 |
| COc1cc(NC(C(=O)N2CCc3ccc(OC(F)(F)F)cc32)c2ccc(F)cc2OC)cc(OCCCC(=O)O)c1 (single isomer, unassigned) [Compound 6A, 4-(3-((1-(4-fluoro-2-methoxyphenyl)-2-oxo-2-(6-(trifluoromethoxy)indolin-1-yl)ethyl)amino)-5-methoxyphenoxy)butanoic acid] |  | 11 | 0.25 |
